Data on four molecules can be found in patent US9987296B2, “Compositions including anthocyanin or anthocyanidin for the prevention or treatment of Articular cartilage-associated conditions” (priority 2008, dated 2018).

The test system of data set [1] is rodent pancreatic beta-cells. To be noted: in culture, with 4 and 10 mM glucose; cited from earlier work.
The next data set deals with bovine chondrocytes. Kind of data set: Matrix synthesis rate (35S) of bovine chondrocytes in alginate beads. The format is cell-based. The note with it: 100 uM with IL-1 5 ng/mL.
Data set [2] relates to Human articular chondrocytes. Kind of data set: Cell viability (calcein AM / ethidium homodimer staining). It is filed as cell-based. To be noted: concentrations above 100 uM up to 500 uM, 96 hours. The text has this:
Chondrocytes were isolated from non-arthritic regions of adult human articular cartilage (N=3 donors) and expanded in tissue culture flasks in DMEM supplemented with 10% calf serum.
At higher concentrations, the color of the anthocyanin interfered with the spectrophotometer reading; therefore, cell viability was additionally measured with calcein staining as follows: Live and dead cells were simultaneously viewed in situ with a confocal microscope (LSM 510; Zeiss, Wetzlar, Germany), using a fluorescent double stain. Calcein AM (1 uM; Invitrogen, Carlsbad, Calif.), a fluorescein derivative that is metabolized by nonspecific esterase present in viable cells, was used to stain live cells. The use of 8 uM ethidium homodimer (Invitrogen), a nucleic acid stain that is excluded by intact cell membranes, enabled visualization of the nuclei of dead cells. After 96-hour exposure to the appropriate concentration of anthocyanins, chondrocytes were cultured in DMEM supplemented with Calcein AM and ethidium homodimer for 45 minutes. Live and dead cells were counted using an automated image analysis script written in Matlab (MathWorks, Natick, Mass.) to measure percentage cell viability.

In data set [3] the test system is osteoarthritic synovium explants. To be noted: cited from earlier work.

Read-outs that look alike come from different tables or passages of the source.

Description for bovine chondrocytes: Chondrocytes were isolated from weight-bearing regions of young (18-30 months old) bovine femoral condyles. Primary cells were obtained from 3 different animals and suspended in beads of 2% alginate. The alginate beads were precultured in DMEM supplemented with 10% calf serum for 48 hours. Before the experiments, the chondrocytes were serum-starved overnight with 0.1% serum to reduce the effect of serum and to reduce anabolic activity to baseline.
For each treatment condition, 10 millicuries of ^35S was added to each well and incubated for the appropriate duration. At the appropriate harvest time point, each well was then washed extensively with PBS (5-6 times with 500 uL, of PBS), before trypsin and EDTA was added to dissolve alginate. After 20-30 minutes, the dissolved gels and released cells were transferred into 1.5 ml Eppendorf tubes with 150 uL, of calf serum (to promote pellet formation) and the cells were centrifuged at 2000 rpm for 5 minutes. The supernatant was removed via pipette without disturbing the cell pellet. The remaining cell and supernatant (approximately 300 ul) was then mixed with 500 uL of PBS and transferred to scintillation vials, to which 5 ml of scintillation fluid was dispensed. Each scintillation vial was capped, thoroughly vortexed and then placed in a gamma counter to measure gamma radiation emission for each sample. Each sample was measured for 5 minutes.

On to Delphinidin-3-O-Glucoside, for which the insulin secretion result in data set [1] was “stimulate insulin secretion”. Moreover, the “matrix synthesis rates (anti-arthritic effect)” value is listed as “reversed the effect of IL-1 suppression on matrix synthesis rates” in the data set with bovine chondrocytes (12 hours, listed as Delphinidin-3-O-glucoside); “anti-arthritic effect” with bovine chondrocytes (12 hours, listed as delphinidin-3-0-glucoside); “anti-arthritic effect” in the data set with bovine chondrocytes (12 hours, listed as delphinidin-3-O-glucoside); “reversed the effect of IL-1 suppression on matrix synthesis rates” with bovine chondrocytes (24 hours, listed as Delphinidin-3-O-glucoside); “anti-arthritic effect” with bovine chondrocytes (24 hours, listed as delphinidin-3-0-glucoside); “anti-arthritic effect” with bovine chondrocytes (24 hours, listed as delphinidin-3-O-glucoside). For the same molecule, the “toxicity relative to the other compounds tested” value in data set [2] is on record as “least toxic at 200 μM”.

For the molecule `OC[C@H]1OC(Oc2cc3c(O)cc(O)cc3[o+]c2-c2ccc(O)cc2)[C@H](O)[C@@H](O)[C@H]1O.[Cl-]` (stereo partly drawn) [pelargonidin-3-galactoses, reference compound], in data set [1], the insulin secretion result is “stimulate insulin secretion”.

As to `N[C@H]1C(O)O[C@H](CO)[C@@H](O)[C@@H]1O` (stereo partly drawn) [glucosamine], the “increase of HA production” value in data set [3] (0.5 mM) is on record as “did not”; in data set [3] (5 mM) it was “approximately 2 fold”.

As for `Oc1ccc(-c2[o+]c3cc(O)cc(O)c3cc2O)cc1.[Cl-]` [Pelargonidin Chloride], the insulin secretion entry in data set [1] is listed as “stimulate insulin secretion”.
